This note sets out measurements from patent US9597330B2, “Drugs for treating respiratory diseases” (DAIICHI SANKYO COMPANY, LIMITED, priority 2013, dated 2017).

pIC50: −log10 of the molar value.

A word on the pIC50: it is −log10 of the IC50, conventionally taken in molar units.

The target in the assay is hNav 1.7 (Homo sapiens (Human), UniProt Q15858). The experiment in a line: Electrophysiological evaluation, automated patch clamp (IonWorks Quattro, Population Patch Clamp mode). Type of assay: cell-based. As to conditions: HEK293A cells stably expressing hNav 1.7/β1/β2; response to second depolarization pulse, pre-pulse potential set to V1/2; read-out: hNav1.7 IC50. (In general: In patch-clamp work, channel activity is measured electrically.)
hNav 1.7, sequence (Q15858 whole entry): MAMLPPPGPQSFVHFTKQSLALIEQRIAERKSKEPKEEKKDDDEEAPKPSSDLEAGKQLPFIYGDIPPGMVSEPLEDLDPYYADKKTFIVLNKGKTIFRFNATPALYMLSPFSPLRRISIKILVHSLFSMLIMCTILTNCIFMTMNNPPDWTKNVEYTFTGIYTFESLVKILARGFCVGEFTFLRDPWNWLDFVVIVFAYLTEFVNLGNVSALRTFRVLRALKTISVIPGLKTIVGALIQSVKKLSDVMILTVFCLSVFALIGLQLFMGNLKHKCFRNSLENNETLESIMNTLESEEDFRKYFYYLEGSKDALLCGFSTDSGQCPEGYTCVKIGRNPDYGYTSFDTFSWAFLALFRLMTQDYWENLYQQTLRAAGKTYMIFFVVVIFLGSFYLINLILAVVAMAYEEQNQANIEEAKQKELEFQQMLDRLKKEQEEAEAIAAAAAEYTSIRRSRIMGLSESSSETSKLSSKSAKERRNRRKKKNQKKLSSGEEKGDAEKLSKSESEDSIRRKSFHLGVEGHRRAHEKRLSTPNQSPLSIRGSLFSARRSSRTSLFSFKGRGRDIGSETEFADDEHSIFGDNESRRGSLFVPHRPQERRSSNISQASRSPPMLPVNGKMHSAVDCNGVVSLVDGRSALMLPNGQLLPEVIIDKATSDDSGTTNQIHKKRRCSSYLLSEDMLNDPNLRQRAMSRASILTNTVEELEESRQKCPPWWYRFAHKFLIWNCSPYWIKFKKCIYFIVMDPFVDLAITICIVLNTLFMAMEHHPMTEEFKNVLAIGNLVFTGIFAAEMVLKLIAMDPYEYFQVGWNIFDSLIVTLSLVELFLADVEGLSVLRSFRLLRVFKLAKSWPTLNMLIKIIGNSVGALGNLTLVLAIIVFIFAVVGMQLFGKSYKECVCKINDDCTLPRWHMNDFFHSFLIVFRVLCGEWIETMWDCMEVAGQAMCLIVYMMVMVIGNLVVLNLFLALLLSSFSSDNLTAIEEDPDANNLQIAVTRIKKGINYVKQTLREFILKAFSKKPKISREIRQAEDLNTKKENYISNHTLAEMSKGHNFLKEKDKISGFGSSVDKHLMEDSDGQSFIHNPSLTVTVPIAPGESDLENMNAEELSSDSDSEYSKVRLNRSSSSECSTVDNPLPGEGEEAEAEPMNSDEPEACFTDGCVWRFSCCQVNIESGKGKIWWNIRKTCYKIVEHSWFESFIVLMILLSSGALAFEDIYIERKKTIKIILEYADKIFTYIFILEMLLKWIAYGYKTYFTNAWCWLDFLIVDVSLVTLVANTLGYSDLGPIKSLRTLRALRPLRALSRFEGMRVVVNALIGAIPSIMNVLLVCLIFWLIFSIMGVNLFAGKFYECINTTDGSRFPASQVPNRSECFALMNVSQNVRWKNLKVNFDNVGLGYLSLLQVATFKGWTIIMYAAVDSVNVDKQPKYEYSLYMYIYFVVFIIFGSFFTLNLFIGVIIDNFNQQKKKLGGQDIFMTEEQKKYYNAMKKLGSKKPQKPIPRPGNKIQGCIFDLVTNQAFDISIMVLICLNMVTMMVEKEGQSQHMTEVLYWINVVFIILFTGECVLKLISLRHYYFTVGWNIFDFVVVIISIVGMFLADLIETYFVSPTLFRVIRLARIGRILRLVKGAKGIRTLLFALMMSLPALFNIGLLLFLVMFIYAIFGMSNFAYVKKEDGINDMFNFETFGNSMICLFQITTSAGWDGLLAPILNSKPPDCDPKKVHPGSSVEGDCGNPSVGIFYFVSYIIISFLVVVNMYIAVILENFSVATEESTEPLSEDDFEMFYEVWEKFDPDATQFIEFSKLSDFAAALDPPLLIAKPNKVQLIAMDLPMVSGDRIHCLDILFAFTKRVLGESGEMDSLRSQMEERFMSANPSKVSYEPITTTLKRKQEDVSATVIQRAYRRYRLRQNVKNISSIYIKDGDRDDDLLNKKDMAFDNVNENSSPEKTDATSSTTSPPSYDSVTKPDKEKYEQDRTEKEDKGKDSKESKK
hNav 1.7, sequence (Q07699 19-218 partner): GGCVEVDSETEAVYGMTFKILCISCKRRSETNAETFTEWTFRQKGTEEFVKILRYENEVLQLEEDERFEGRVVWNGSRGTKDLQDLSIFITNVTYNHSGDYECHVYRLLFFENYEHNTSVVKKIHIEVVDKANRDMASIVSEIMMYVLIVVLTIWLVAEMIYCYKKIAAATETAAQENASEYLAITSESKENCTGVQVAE
hNav 1.7, sequence (O60939 30-215 partner): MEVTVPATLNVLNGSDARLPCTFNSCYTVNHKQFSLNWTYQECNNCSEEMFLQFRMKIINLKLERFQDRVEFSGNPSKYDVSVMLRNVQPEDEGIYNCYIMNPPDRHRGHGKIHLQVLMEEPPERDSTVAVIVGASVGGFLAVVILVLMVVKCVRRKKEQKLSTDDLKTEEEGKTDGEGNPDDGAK

On to `Cn1nccc1[C@H]1CCCCC[C@@H]1Oc1cc(F)c(S(=O)(=O)Nc2ccncn2)cc1Cl` (relative stereo) [Compound 19, 5-Chloro-2-fluoro-4-{[(1S*,2R*)-2-(1-methyl-1H-pyrazol-5-yl)cycloheptyl]oxy}-N-(pyrimidin-4-yl)benzenesulfonamide], for which the negative logarithm of the IC50 (pIC50) is 7.43.
To `Cn1nccc1[C@H]1CCCCC[C@@H]1Oc1cc(F)c(S(=O)(=O)Nc2ccncn2)cc1F` (relative stereo) [Compound 9, 2,5-Difluoro-4-{[(1S*,2R*)-2-(1-methyl-1H-pyrazol-5-yl)cycloheptyl]oxy}-N-(pyrimidin-4-yl)benzenesulfonamide] belongs 7.04.
